Data published in patent US20130289019A1, “METHODS OF TREATING BEHAVIORIAL AND/OR MENTAL DISORDERS” (AMAZING GRACE, INC., priority 2012, published 2013).
“Also recorded” adds a separate entry of the source.

Key:
Type in all cases: in vivo, rat
rats (NAcShell infusion) = assay: locomotor activity in the open field after bilateral fluoxetine infusion into NAcShell
[1] = system: rats (basal extracellular ACh in the NAcShell, swim test); assay: chronic systemic fluoxetine: basal extracellular ACh in NAcShell and swim test
rats (NAc infusion) = assay: swim test scores during bilateral fluoxetine infusion in the NAc
[2] = system: ACh outflow in the NAcShell and swimming of rats; assay: local fluoxetine infusion in NAcShell: ACh outflow and swim test
[3] = 0.2 mM bilateral in NAc, fluoxetine on Day 2 (Ringer Day 3)
[4] = 0.2 mM bilateral in NAc, fluoxetine on Day 3 (Ringer Day 2)
[5] = 0.2 mM bilateral in NAc, on Day 2 or Day 3 (combined)
[6] = 0.5 mM bilateral in NAc, fluoxetine on Day 2 (Ringer Day 3)
[7] = 0.5 mM bilateral in NAc, fluoxetine on Day 3 (Ringer Day 2)
[8] = 0.5 mM bilateral in NAc, on Day 2 or Day 3 (combined)
[9] = 0.75 mM bilateral in NAc, fluoxetine on Day 2 (Ringer Day 3)
[10] = 0.75 mM bilateral in NAc, fluoxetine on Day 3 (Ringer Day 2)
[11] = 0.75 mM bilateral in NAc, on Day 2 or Day 3 (combined)

CNCCC(Oc1ccc(C(F)(F)F)cc1)c1ccccc1 (centres unmarked) [Fluoxetine]
locomotor activity in the open field, in words (rats (NAcShell infusion)): does not affect locomotor activity
swimming plus climbing scores (total escape efforts) ([1]; following chronic fluoxetine treatment, saline 42±11): 55±7
basal ACh level in the NAcShell, effect in words ([1]; low dose subcutaneously, daily over 14 days, rats in the forced swimming test): normalizes the chronic elevation in basal ACh level
Climbing score, FLU (rats (NAc infusion); [3]): 39 ± 12
Immobility score, FLU (rats (NAc infusion); [3]): 66 ± 30
Swimming score, FLU (rats (NAc infusion); [3]): 15 ± 17
Climbing score, FLU (rats (NAc infusion); [4]): 60 ± 15
Immobility score, FLU (rats (NAc infusion); [4]): 45 ± 13
Swimming score, FLU (rats (NAc infusion); [4]): 14 ± 8
Climbing score, FLU (rats (NAc infusion); [5]): 52 ± 10
Immobility score, FLU (rats (NAc infusion); [5]): 53 ± 12
Swimming score, FLU (rats (NAc infusion); [5]): 14 ± 7
Climbing score, FLU (rats (NAc infusion); [6]): 45 ± 12
Immobility score, FLU (rats (NAc infusion); [6]): 68 ± 9
Swimming score, FLU (rats (NAc infusion); [6]): 6 ± 3
Climbing score, FLU (rats (NAc infusion); [7]): 74 ± 10
Immobility score, FLU (rats (NAc infusion); [7]): 39 ± 10
Swimming score, FLU (rats (NAc infusion); [7]): 7 ± 6
Climbing score, FLU (rats (NAc infusion); [8]): 61 ± 9
Immobility score, FLU (rats (NAc infusion); [8]): 51 ± 8
Swimming score, FLU (rats (NAc infusion); [8]): 7 ± 3
Climbing score, FLU (rats (NAc infusion); [9]): 44 ± 10
Immobility score, FLU (rats (NAc infusion); [9]): 62 ± 11
Swimming score, FLU (rats (NAc infusion); [9]): 14 ± 7
Climbing score, FLU (rats (NAc infusion); [10]): 57 ± 9
Immobility score, FLU (rats (NAc infusion); [10]): 53 ± 7
Swimming score, FLU (rats (NAc infusion); [10]): 10 ± 4
Climbing score, FLU (rats (NAc infusion); [11]): 57 ± 9
Immobility score, FLU (rats (NAc infusion); [11]): 53 ± 7
Swimming score, FLU (rats (NAc infusion); [11]): 10 ± 4
immobility in the swim test, effect in words (rats (NAc infusion); bilateral infusion into NAcShell, dose-dependently): decreases immobility
swimming time greater than during Ringer ([2]; 1.0 mM local infusion in NAcShell, n=8): 18.9%
swimming time during fluoxetine ([2]; 1.0 mM local infusion in NAcShell, n=8, Ringer 277±44 sec): 329 ± 45 s
ACh outflow in the NAcShell, effect in words ([2]; during and following 1.0 mM fluoxetine infusion, vs Ringer infusion or pretest): substantially lower; also recorded: decreases the extracellular level of ACh
immobility in the swim test, effect in words ([2]; unilateral infusion into NAcShell): decreases immobility
